# Like-named read-outs stand apart in the source and are kept apart here.
# How the values were obtained:
# [1] = biological target: T1, S282T mutant HCV Δ21 NS5b polymerase (Hepatitis C virus genotype 1b, UniProt Q9WMX2, S2701T); test: biochemical; settings: for fold shift (S282T IC50 vs WT IC50): Note of Table II
# T1 construct: 75 nM HCV Δ21 NS5b polymerase
# Method: (§1) Assay Protocol: Either wild type or S282T (Migliaccio, et al, J. Biol. Chem. 2003, 49164-49170; Klumpp, et al., J. Biol. Chem. 2006, 3793-3799) mutant polymerase enzyme was used in this assay. NS5b polymerase assay (40 μL) was assembled by adding 28 μL, polymerase mixture (final concentration: 50 mM Tris-HCl at pH 7.5, 10 mM KCL, 5 mM MgCl2, 1 mM DTT, 10 mM EDTA, 4 ng/μL of RNA template, and 75 nM HCV Δ21 NS5b polymerase) to assay plates followed by 4 μL of compound dilution. The polymerase and compound were pre-incubated at 35° C. for 10 minute before the addition of 8 μL of nucleotide substrate mixture (33P-α-labeled competing nucleotide at KM and 0.5 mM of the remaining three nucleotides). The assay plates were covered and incubated at 35° C. for 90 min. Reactions were then filtered through 96-well DEAE-81 filter plates via vacuum. The filter plates were then washed under vacuum with multiple volumes of 0.125 M NaHPO4, water, and ethanol to remove unincorporated label. Plates were then counted on TopCount to assess the level of product synthesis over background controls. The IC50 value is determined using Prism fitting program.
# [2] = biological target: T1, S282T mutant HCV Δ21 NS5b polymerase; settings: value taken from the source in the Note column; cited from earlier work
# [3] = biological target: T2, wild type HCV Δ21 NS5b polymerase (Hepatitis C virus genotype 1b, UniProt Q9WMX2); settings: read-out: WT IC50, value taken from the source in the Note column; cited from earlier work
# T2 construct: 75 nM HCV Δ21 NS5b polymerase
# [4] = biological target: T2, wild type HCV Δ21 NS5b polymerase; test: HCV IC50 determination, NS5b polymerase assay, wild type enzyme; type: biochemical
# Method: as §1
# HCV replicon cells = test: HCV EC50 determination, replicon luciferase assay; type: cell-based; settings: Hepatitis C virus, 72 h
# Method: Replicon cells were seeded in 96-well plates at a density of 8×10^3 cells per well in 100 μL of culture medium, excluding Geneticin. Compound was serially diluted in 100% DMSO and then added to the cells at a 1:200 dilution, achieving a final concentration of 0.5% DMSO and a total volume of 200 μL. Plates were incubated at 37° C. for 3 days, after which culture medium was removed and cells were lysed in lysis buffer provided by Promega's luciferase assay system. Following the manufacturer's instruction, 100 μL of luciferase substrate was added to the lysed cells and luciferase activity was measured in a TopCount luminometer.
# [5] = test system: Huh-luc/neo replicon cells; test: Metabolism study: intracellular triphosphate analog concentration; type: in vitro ADME; settings: PD-A-8b to TP-8a versus B-7 to TP-3, Huh-luc/neo replicon cells
# Source text: Applicants have observed that monophosphate prodrugs of nucleoside analogs with a nitrogen at the X^1 position can have enhanced activity over their counterparts with a carbon at the X^1 position. This difference in activity correlates to the amount of the active triphosphate analogs of the compounds in cells. This can be quantified by a metabolism study which quantifies the intracellular concentration of the triphosphate analogs. The higher intracellular concentration of the triphosphate metabolite correlates to the prodrug with enhanced activity.
# Huh-luc/neo replicon cells containing HCV genotype 1b subgenomic replicons were maintained in Dulbecco's modified eagle medium containing glutamax supplemented with 10% heat inactivated fetal bovine serum, penicillin-streptomycin, and G418 disulphate salt solution. Cells were transferred to twelve well tissue culture plates by trypsonization and grown to confluency (0.88×10^6 cells/well). Cells were treated for 24 hours with 10 μM nucleoside, or 10 μM prodrug. After 24 hours, cells were washed 2 times with 2.0 mL ice cold 0.9% sodium chloride saline. […] Intracellular levels of the nucleoside triphosphates were quantified based on authentic standard curves by liquid chromatography coupled to tandem mass spectrometry.
# [6] = replicon cells, 3 days incubation, luciferase readout, read-out: EC50
Compound,EC50 (HCV replicon cells; [6]) [µM],further results
"C[C@@]1(O)[C@H](O)[C@@H](COP(=O)(O)OP(=O)(O)OP(=O)(O)O)O[C@@]1(C#N)c1ccc2c(N)ncnn12 [triphosphate of (2R,3R,4R,5R)-2-(4-aminopyrrolo[1,2-f][1,2,4]triazin-7-yl)-3,4-dihydroxy-5-(hydroxymethyl)-3-methyl-tetrahydrofuran-2-carbonitrile]",–,fold shift (S282T IC50 vs WT IC50) [1]: WO/2009/132135 (242 fold shift); IC50 [2]: 111 µM; IC50 [3]: 525 nM
C[C@@]1(F)[C@H](O)[C@@H](COP(=O)(O)OP(=O)(O)OP(=O)(O)O)O[C@@]1(C#N)c1ccc2c(N)ncnn12 [TP-2],–,IC50 [1]: 1600 nM; fold shift (S282T IC50 vs WT IC50) [1]: (7 fold shift); IC50 [4]: 240 nM
CC(C)OC(=O)OCOP(=O)(OCOC(=O)OC(C)C)OC[C@H]1O[C@@](C#N)(c2ccc3c(N)ncnn23)[C@](C)(F)[C@@H]1O [Compound 10],6.5 to 8,–
CCOC(=O)[C@@H](NP(=O)(OC[C@H]1O[C@@](C#N)(c2ccc3c(N)ncnn23)[C@](C)(F)[C@@H]1O)Oc1ccccc1)C(C)C (stereo partly shown) [Compound C-1],67 to 70,–
CCOC(=O)[C@H](C)NP(=O)(OC[C@H]1O[C@@](C#N)(c2ccc3c(N)ncnn23)[C@](C)(F)[C@@H]1O)Oc1ccccc1 (stereo partly shown) [Compound B-1],1.4 to 4.3,–
CCC(CC)COC(=O)C(C)(C)NP(=O)(OC[C@H]1O[C@@](C#N)(c2ccc3c(N)ncnn23)[C@](C)(F)[C@@H]1O)Oc1ccccc1 (stereo partly shown) [Compound B-4],8.4 to 19,–
CCOC(=O)[C@H](C)NP(=O)(OC[C@H]1O[C@@](C#N)(c2ccc3c(N)ncnn23)[C@](C)(F)[C@@H]1O)Oc1cccc2ccccc12 (stereo partly shown) [Compound B-6],3.75 to 11.1,–
CCOC(=O)[C@H](Cc1c[nH]c2ccccc12)NP(=O)(OC[C@H]1O[C@@](C#N)(c2ccc3c(N)ncnn23)[C@](C)(F)[C@@H]1O)Oc1ccccc1 (stereo partly shown) [Compound C-3],43 to 84,–
C[C@@]1(F)[C@H](O)[C@@H](COP(=O)(O)NCCc2c[nH]c3ccccc23)O[C@@]1(C#N)c1ccc2c(N)ncnn12 [Compound 22],31 to 45,–
CC(C)OC(=O)[C@H](C)NP(=O)(OC[C@H]1O[C@@](C#N)(c2ccc3c(N)ncnn23)[C@](C)(F)[C@@H]1O)Oc1ccccc1 (stereo partly shown) [Compound B-3],16 to 28,–
C[C@@]1(F)[C@@H]2OP(=O)(O)OC[C@H]2O[C@@]1(C#N)c1ccc2c(N)ncnn12 [Compound 23],39.4 to 40.3,–
C[C@@]1(F)[C@H](O)[C@@H](COP(=O)(O)OP(=O)(O)OP(=O)(O)O)O[C@H]1c1cnc2c(N)ncnn12,–,IC50 [1]: 1600 nM; fold shift (S282T IC50 vs WT IC50) [1]: (5.3 fold shift); IC50 [4]: 300 nM
CCOC(=O)[C@H](CCS(C)(=O)=O)NP(=O)(OC[C@H]1O[C@@](C#N)(c2ccc3c(N)ncnn23)[C@](C)(F)[C@@H]1O)Oc1ccccc1 (stereo partly shown) [Compound C-6],11,–
CCOC(=O)[C@H](Cc1ccccc1)NP(=O)(OC[C@H]1O[C@@](C#N)(c2ccc3c(N)ncnn23)[C@](C)(F)[C@@H]1O)Oc1ccccc1 (stereo partly shown) [Compound C-4],9.8 to 31,–
CCOC(=O)[C@H](C)NP(=O)(OC[C@H]1O[C@@H](c2ccc3c(N)ncnn23)[C@](C)(F)[C@@H]1O)Oc1cccc2ccccc12 (stereo partly shown) [Compound B-8],35 to 60,–
CCOC(=O)[C@H](C)NP(=O)(OC[C@H]1O[C@@H](c2ccc3c(N)ncnn23)[C@](C)(F)[C@@H]1O)Oc1ccccc1 (stereo partly shown) [Compound B-7],63 to 73,–
C[C@@]1(F)[C@H](O)[C@@H](COP(=O)(O)OP(=O)(O)OP(=O)(O)O)O[C@H]1c1ccc2c(N)ncnn12,–,IC50 [4]: 34 nM
CCOC(=O)[C@H](CCSC)NP(=O)(OC[C@H]1O[C@@](C#N)(c2ccc3c(N)ncnn23)[C@](C)(F)[C@@H]1O)Oc1ccccc1 (stereo partly shown) [Compound C-2],3.9 to 12,–
CC(C)(C)C(=O)SCCOP(=O)(OCCSC(=O)C(C)(C)C)OC[C@H]1O[C@@H](c2cnc3c(N)nc(N)nn23)[C@](C)(F)[C@@H]1O [Compound A-1],23,–
CCOC(=O)CNP(=O)(OC[C@H]1O[C@@](C#N)(c2ccc3c(N)ncnn23)[C@](C)(F)[C@@H]1O)Oc1ccccc1 (stereo partly shown) [Compound B-5],1.93 to 25.5,–
CC(C)OP1(=O)OC[C@H]2O[C@@](C#N)(c3ccc4c(N)ncnn34)[C@](C)(F)[C@@H]2O1 (stereo partly shown) [Compound 24],40.3 to 70.5,–
CCCCCCCOC(=O)[C@H](C)NP1(=O)OC[C@H]2O[C@@](C#N)(c3ccc4c(N)ncnn34)[C@](C)(F)[C@@H]2O1 (stereo partly shown) [Compound 25],9.7 to 10,–
CCOC(=O)[C@H](C)NP(=O)(OC[C@H]1O[C@@H](c2cnc3c(N)ncnn23)[C@](C)(F)[C@@H]1O)Oc1ccccc1 (stereo partly shown) [PD-A-8b],0.68,"efficiency of activation of prodrug to its triphosphate analog, compared with B-7 [5]: more than two orders of magnitude more efficient"
C[C@@]1(F)[C@H](O)[C@@H](COP(=O)(O)OP(=O)(O)OP(=O)(O)O)O[C@H]1c1cnc2c(=O)[nH]c(N)nn12 [TP-1],–,IC50 [1]: 150 nM; fold shift (S282T IC50 vs WT IC50) [1]: (1 fold shift); IC50 [4]: 150 nM
CCOC(=O)[C@@H]1CCCN1P(=O)(OC[C@H]1O[C@@](C#N)(c2ccc3c(N)ncnn23)[C@](C)(F)[C@@H]1O)Oc1ccccc1 (stereo partly shown) [Compound C-5],–,EC50 (HCV replicon cells): 24 to 28 µM

# Source: patent publication US8455451B2, “2'-fluoro substituted carba-nucleoside analogs for antiviral treatment” (Gilead Sciences, Inc., priority 2009, dated 2013)
